We go through 2 compounds from patent publication US12215140B2, “Method of stabilizing protein contained in specimen and solution for stabilizing protein contained in specimen” (EIKEN KAGAKU KABUSHIKI KAISHA, priority 2018, dated 2025).

The test deals with hemoglobin-haptoglobin complex. Briefly: Stability of hemoglobin (as hemoglobin-haptoglobin complex) in samples preserved at 37° C. in preservation solution containing 1 unit/L haptoglobin, Hb measured by latex agglutination method (Examples 1 to 7). Conditions: arylboronic acid 15 mmol/L, 37° C. Set-up: species or system human. As to the method: Preservation solutions were prepared with the addition of 40 mmol/L HEPES (pH 6.8), 0.1% BSA, 0.1% NaN3, 1 unit/L haptoglobin, and 0 to 100 mmol/L phenylboronic acid. Samples obtained by adding hemoglobin-added fecal specimens to the preservation solutions so that the fecal concentration would be 0.5% were preserved at 37° C. for 0, 7, 14, and 21 days. The fecal specimens were added with hemoglobin having an amount such that the hemoglobin concentration in the samples would be about 300 μg/L. Instead of the fecal specimens to which hemoglobin was added, samples containing no fecal specimens, in which hemoglobin was added to the preservation solutions so that the hemoglobin concentration in the samples would be 300 μg/L, were similarly preserved. The hemoglobin (Hb) concentrations (μg/L) in the preserved samples were measured by the latex agglutination method.
The concentrations of hemoglobin were measured using “OC-Hemodia (registered trademark) Auto III ‘EIKEN’” (available from EIKEN CHEMICAL CO., LTD.) as a measurement reagent and “OC-sensor DIANA” (available from EIKEN CHEMICAL CO., LTD.) as a measurement device. The above measurement reagent contains latex particles immobilizing an anti-human hemoglobin rabbit polyclonal antibody.
From the measured concentrations of hemoglobin, the recovery ratios (%) were calculated with respect to the hemoglobin concentrations immediately after the fecal specimens were added to the preservation solutions (i.e., concentrations 0 days after the fecal specimens were added).
(§1) For comparative examples, preservation solutions to which no arylboronic acid was added were prepared, and testing was conducted in the same manner.
The concentration of phenylboronic acid in the preservation solutions of Example 1 was fixed to 15 mmol/L, preservation solutions to which a sugar (sorbitol, sucrose, trehalose, glucose, fructose, or mannitol) was further added at 50 mmol/L or 100 mmol/L or preservation solutions to which no sugar was added were prepared, and testing was conducted in the same manner as in Example 1. For comparative examples, preservation solutions to which the phenylboronic acid and sugar were not added were prepared, and testing was conducted in the same manner.
Preservation solutions in which sorbitol, sucrose, trehalose, glucose, fructose, or mannitol was added at 100 mmol/L to the preservation solutions of Example 1 containing no phenylboronic acid were prepared, and testing was conducted in the same manner as in Example 1. For comparison, the same testing was conducted without adding these sugars.
The concentration of phenylboronic acid in the preservation solutions of Example 1 was fixed to 15 mmol/L, preservation solutions to which sorbitol was added at 10 to 500 mmol/L or sucrose was added at 10 to 250 mmol/L or preservation solutions to which no sugar was added were prepared, and testing was conducted in the same manner as in Example 1. For comparative examples, preservation solutions to which the phenylboronic acid and sugar were not added were prepared, and testing was conducted in the same manner.
as §1

The structures appear in SMILES notation.

As to `O=C(O)c1ccccc1B(O)O` [2C-PBA, 2-carboxyphenylboronic acid], the Hb concentration was 315 µg/L (Feces 1, 0 days); 196 µg/L (Feces 1, 7 days); 150 µg/L (Feces 1, 14 days); 311 µg/L (Feces 2, 0 days); 157 µg/L (Feces 2, 7 days); 103 µg/L (Feces 2, 14 days). Also, the Hb concentration runs as follows: (Feces 3, 0 days) 300 µg/L; (Feces 3, 7 days) 124 µg/L; (Feces 3, 14 days) 76 µg/L; (No feces, 0 days) 292 µg/L; (No feces, 7 days) 272 µg/L; (No feces, 14 days) 264 µg/L. The “Recovery ratio with respect to Hb after 0 days” value (shortened to “Recovery ratio”) is reported as 100% (Feces 1, 0 days); 62% (Feces 1, 7 days); 48% (Feces 1, 14 days); 100% (Feces 2, 0 days); 50% (Feces 2, 7 days); 33% (Feces 2, 14 days). Besides, the “Recovery ratio” value is listed as 100% (Feces 3, 0 days); 41% (Feces 3, 7 days); 25% (Feces 3, 14 days); 100% (No feces, 0 days); 93% (No feces, 7 days); 90% (No feces, 14 days).

With `O=C(O)c1ccc(B(O)O)cc1` [4C-PBA, 4-carboxyphenylboronic acid], the Hb concentration was determined as 312 µg/L (Feces 1, 0 days); 252 µg/L (Feces 1, 7 days); 234 µg/L (Feces 1, 14 days); 315 µg/L (Feces 2, 0 days); 239 µg/L (Feces 2, 7 days); 227 µg/L (Feces 2, 14 days). The Hb concentration by setting is: (Feces 3, 0 days) 300 µg/L; (Feces 3, 7 days) 219 µg/L; (Feces 3, 14 days) 194 µg/L; (No feces, 0 days) 279 µg/L; (No feces, 7 days) 275 µg/L; (No feces, 14 days) 271 µg/L. Also, the “Recovery ratio” value was 100% (Feces 1, 0 days); 81% (Feces 1, 7 days); 75% (Feces 1, 14 days); 100% (Feces 2, 0 days); 76% (Feces 2, 7 days); 72% (Feces 2, 14 days). Moreover, the “Recovery ratio” value reads like this: (Feces 3, 0 days) 100%; (Feces 3, 7 days) 73%; (Feces 3, 14 days) 65%; (No feces, 0 days) 100%; (No feces, 7 days) 98%; (No feces, 14 days) 97%.
